Series [1] has as its system Mucor indicus. The experiment in a line: Agar disc diffusion, strain J. Set-up: Inhibition%: concentration or dose not given beside the values. Particulars: for Diameter of clear zone inhibition: control 6 mm. Format: cell-based. (In agar diffusion tests the substance spreads into inoculated agar from a disc or well.)
Series [2] in a line: Shake flask n-octanol/deionized water partition (lipophilicity). Format: physicochemical. Particulars: for pKa: Henderson–Hasselbalch; for Concentration, aqueous layer: deionised water phase; for Concentration, organic layer: n-octanol phase. How it is done: The lipophilicity of all complexes and free ligands was evaluated by the flask-shaking method through n-octanol/deionized water phase partition.[49–51] The partition coefficients (log Po/w) and distribution coefficients (log Do/w) of all substances were also acquired from molar absorption coefficients, conductivity, and pH measurements.[52–54]
Lipophilicity is an imperative factor in anticancer and antimicrobial properties, particularly the necessity for a relevant hydrophobicity to assist the crossing of the cell membrane. This is also supported for the characterization of a drug because it has a fundamental impact on the pharmacokinetic profile and is associated with its capacity to enter tumor cells through passive diffusion.[139] […] This is probably due to the fact that hydrophobic effects play a crucial role not only in the intramolecular interactions that take place between a medication and its target site, but also in the distribution of a drug within a biosystem, its interaction with rival binding sites, passage across and into membranes, and its interaction with metabolizing enzymes. However, the “accurate” model system for hydrophobic effects is octanol/water. Hydrophobicity (lipophilicity) is associated with the partition coefficient (log P), which is a measure of the ability of the solute to go into two immiscible phases (polar and non-polar environments). Also, it refers to the concentration of unionized species of compounds. Generally, the ability of a drug to penetrate with high permeability into lipid membranes depends on the solubility and partition coefficient of the drug. Furthermore, the partition coefficient is extensively employed in the discovery of new medications, chromatography, physical chemistry, environmental science and other fields. Since lipophilicity is one of the major parameters affecting important biological processes, it can influence drug intake via the absorption, distribution, metabolism, excretion, and toxicity (ADMET) characteristics of the substances.[140] Additionally, the ability of a molecule or drug to passively diffuse across cell membranes has been linked to its lipophilicity, which is a measure of the solubility of the substance in aqueous and lipid-like environments.[141] In general, chemotherapeutic medications often need to have certain solubility in the lipid phase in order to be absorbed by the biofilm. Meanwhile, the intracellular milieu is a water-soluble environment once the drug has entered the cell. The medicine must be water-soluble for it to have any anticancer effects. […] Conversely, the cytotoxic properties of a synthesized complex are not only associated with its DNA/protein binding affinity but may be also influenced by its lipophilicity. Additionally, molecules with higher lipophilicity have increased permeability into cell membranes, which determines a drug's cytotoxicity. […] However, more positive partition coefficient values (log P > 0) correspond to higher lipophilicity, and more negative values (log P < 0) correspond to higher hydrophilicity. Generally, log P is measured between −3 and +10; if […], the substance has an extremely hydrophilic character, and if log P > +10, the substance has an extremely hydrophobic character. In addition, the aromatic ligands get larger in size and become more hydrophobic. […] The present complexes (1–3) have higher values of log P and log D compared to the free ligand (Table 11). However, when log P > ±2, the drug will be harder to excrete from the body due to its high lipophilic character, which also creates toxicity due to accumulation. […] (Table 11). […] The observed results are also well correlated with cytotoxic properties. Moreover, in an equilibrium two-component system, the partition coefficient (log P) reflects the ratio of neutral solute concentrations in the organic and aqueous phases. As a result, log P expresses the inherent lipophilicity of a compound in the absence of dissociation or ionization. […]

For series [3], the system named is Staphylococcus Aureus. Kind of series: Agar disc diffusion, strain F. Format: cell-based. Set-up: Inhibition%: concentration or dose not given beside the values. As to conditions: for Diameter of clear zone inhibition: control 6 mm.
The target in series [4] is BSA (Bos taurus, UniProt P02769). The experiment in a line: BSA fluorescence quenching titration. Format: binding, bovine. Particulars: for Gibb's free energy change (SV method II), BSA: T = 298 K; for Kq (SV method I), BSA: τ0 = 10^−8 s; for P, ratio of fluorescence quantum efficiency, BSA: F/F0 vs 1/[BSA]. How it is done:
Titrations were performed for all tested compounds (1–200 μM) with pre-incubated EB-bound DNA and the intensity variations between 510 nm and 610 nm were carefully monitored in the presence and absence of DNA (200 μM) during the initial emission and excitation by EB.[31]
Fluorescence emission spectral titration is an efficient approach to evaluating the binding properties of DNA/BSA biomolecules. In general, the fluorescence of EB is quite weak in aqueous solution, but when it is bound to DNA, the fluorescence intensity rises. However, it is a well-known imperative intercalator and is more supportive in distinguishing the binding strength of non-fluorescence test substances. Also, the fluorescence emission spectra of the EB–DNA adduct were examined at 610 nm in the absence and presence of rising quantities of each test compound. When the complex concentration (0–240 μM) rises, the fluorescence intensity of the EB-bound DNA complex diminishes owing to the displacement of EB from CT-DNA. A notable reduction in the fluorescence emission intensity at 610 nm is observed (Fig. S26 ^† and Table 4). The photoelectron shift from DNA's guanine base to the excited states may be the cause of the frequency quenching in the emission of the test substance by DNA. […] Therefore, the competitive binding experiment can make use of EB as a fluorescent probe. […] This is further evidence that complexes (1–3) strongly bind intercalatively with DNA. The observed results agree well with the data from electronic absorption spectral measurements. Additionally, the experiment was extended to examine the binding properties between the test substance and BSA. BSA mostly contains three amino acid residues (tyrosine, tryptophan, and phenylalanine), which give it its inherent fluorescence. […] These two residues also have minimal quenching effects. Tryptophan in BSA fluoresces mostly because of a residue that is trapped inside a hydrophobic cavity. Therefore, it is crucial to model potential binding interactions with the metal complexes. […] The fluorescence intensity also reduces while the test substances (1–3) are steadily blended with the BSA solution, proving that complexes (1–3) interact with BSA via altering the protein's secondary structure, which also leads to an alteration in the tryptophan environment of BSA (Fig. S27 ^†). Furthermore, BSA structural similarities share 76% sequence identity with human serum albumin (HSA), the most prevalent protein in blood plasma that transports ions and proteins to cells and tissues. HSA is able to readily crystallize under the trivalent cations, but BSA has no ready crystallizing property. However, they consist of parallel physicochemical properties to each other.[74,75] Additionally, the Stern–Volmer eqn (12) and (13) were employed to analyze the data (Fig. S28 ^† and Table 4). Additionally, the kq values for DNA and BSA binding were acquired in the range of 1.1636–2.8863 × 10^12 and 2.6390–7.0774 × 10^12 mol^−1 s^−1, respectively. They are also much greater than the collision quenching constant value (2.0 × 10^10 mol^−1 s^−1). Therefore, it is assumed that the static quenching process was brought on by adduct construction between the test compounds and BSA rather than a dynamic collision. However, fluorescence spectroscopy is generally plagued by the inner filter effect (IFE), disturbing spectral analysis. The energizing ray is attenuated due to the highly concentrated solution sample. As a result, strong fluorescence is only seen on surfaces facing the excitation beam.

Setting [5] is: n-octanol/deionised water, shake flask.

Like-named read-outs stand apart in the source and are kept apart here.

As usually defined, the pKa is the pH at which an ionisable group is half protonated. Usually Log D stands for the decadic logarithm of the distribution of all forms, ionised or not, between an organic phase and buffer at a given pH. The term Log P denotes the decadic logarithm of the partition coefficient of the neutral form, usually between octanol and water. Regarding `[Mn+2].[O-]c1ccccc1N=Cc1ccc(N2CCOCC2)cc1.[O-]c1ccccc1N=Cc1ccc(N2CCOCC2)cc1.c1ccc(-c2ccccn2)nc1` [(1)], in series [1], the Inhibition% amounted to 45% and the “Diameter of clear zone inhibition” value is 11 mm. In series [2], the “Concentration, aqueous ions” value stood at 238 µM; the “Net pH” value is 3.48; the pKa worked out at 3.42; the “Concentration, aqueous layer” value was 1600 µM. In series [2], the “Concentration, organic layer” value came out at 23500 µM. Further, the “Log D” value in series [2] (n-octanol/deionised water) was found to be 1.107. Besides, in series [2] (setting [5]), the “Log P” value is on record as 1.166. In series [3], the Inhibition% came out at 40% and the “Diameter of clear zone inhibition” value was 10 mm. In addition, in series [4], the “KSV (SV method I), BSA” value turned out to be 46510 M⁻¹; the “Kass (SV method II), BSA” value amounted to 20050 M⁻¹; the “n, number of binding sites (SV method II), BSA” value (shortened to “n, number of binding sites”) was found to be 0.954; the “Gibb's free energy change (SV method II), BSA” value (shortened to “Gibb's free energy change”) is -24.5 kJ/M. In series [4], the “Kq (SV method I), BSA” value is 4.651e+12 M⁻¹ s⁻¹ and the “P, ratio of fluorescence quantum efficiency, BSA” value (from here on “P, ratio”) was found to be 0.287.

Turning to `[Co+2].[O-]c1ccccc1N=Cc1ccc(N2CCOCC2)cc1.[O-]c1ccccc1N=Cc1ccc(N2CCOCC2)cc1.c1ccc(-c2ccccn2)nc1` [(2)], in series [1], the Inhibition% amounted to 45% and the “Diameter of clear zone inhibition” value was 11 mm. Moreover, in series [2], the “Concentration, aqueous ions” value is 56.6 µM; the “Net pH” value was determined as 4.38; the pKa amounted to 4.36; the “Concentration, aqueous layer” value stood at 12000 µM. For the same compound, in series [2], the “Concentration, organic layer” value was 400 µM. Also, the “Log D” value in series [2] (n-octanol/deionised water) is given as −1.497. For the same compound, the “Log P” value in series [2] (setting [5]) was −1.477. For the same compound, in series [3], the Inhibition% amounted to 45% and the “Diameter of clear zone inhibition” value turned out to be 11 mm. For the same compound, in series [4], the “KSV (SV method I), BSA” value is 70740 M⁻¹; the “Kass (SV method II), BSA” value is 54550 M⁻¹; the “n, number of binding sites” value is 1.018; the “Gibb's free energy change” value is -27.0 kJ/M. In addition, in series [4], the “Kq (SV method I), BSA” value was 7.074e+12 M⁻¹ s⁻¹ and the “P, ratio” value is listed as 0.385.

For the compound `[Ni+2].[O-]c1ccccc1N=Cc1ccc(N2CCOCC2)cc1.[O-]c1ccccc1N=Cc1ccc(N2CCOCC2)cc1.c1ccc(-c2ccccn2)nc1` [(3)], in series [1], the Inhibition% is given as 54% and the “Diameter of clear zone inhibition” value amounted to 13 mm. In series [2], the “Concentration, aqueous ions” value came to 35.7 µM; the “Net pH” value came out at 4.76; the pKa was 4.75; the “Concentration, aqueous layer” value was determined as 1250 µM. Also, the “Concentration, organic layer” value in series [2] is 18500 µM. Also, in series [2] (n-octanol/deionised water), the log distribution coefficient (Log D) was determined as 1.158. Also, in series [2] (setting [5]), the “Log P” value is listed as 1.170. Moreover, in series [3], the Inhibition% is listed as 40% and the “Diameter of clear zone inhibition” value stood at 10 mm. For the same compound, in series [4], the “KSV (SV method I), BSA” value came to 48060 M⁻¹; the “Kass (SV method II), BSA” value worked out at 52920 M⁻¹; the “n, number of binding sites” value is recorded as 1.051; the “Gibb's free energy change” value was -26.9 kJ/M. Further, in series [4], the “Kq (SV method I), BSA” value is 4.8055e+12 M⁻¹ s⁻¹ and the “P, ratio” value amounted to 0.348.

One may read the logD as the decadic logarithm of the distribution of all forms, ionised or not, between an organic phase and buffer at a given pH. A word on the logP: it is the decadic logarithm of the partition coefficient of the neutral form, usually between octanol and water. For the compound `Oc1ccccc1N=Cc1ccc(N2CCOCC2)cc1` [(HL), 2-(4-morpholinobenzylideneamino)phenol], in series [1], the Inhibition% is 45% and the “Diameter of clear zone inhibition” value was 11 mm. Also, in series [2], the “Concentration, aqueous ions” value stood at 789 µM; the “Net pH” value was 3.35; the “Concentration, aqueous layer” value worked out at 900 µM; the “Concentration, organic layer” value is 11000 µM. This compound also yielded a logD at 24 h in series [2] (n-octanol/deionised water, pH 7.11) of 0.814. In addition, the pKa in series [2] (n-octanol/deionized water (shake flask), pH 3.35, read-out: pKa) came to 3.08. The compound further returned a logP at 24 h in series [2] (pH 7.11, n-octanol/deionised water, shake flask) of 1.09. Besides, in series [3], the Inhibition% stood at 33% and the “Diameter of clear zone inhibition” value is 09 mm. For the same compound, in series [4], the “KSV (SV method I), BSA” value turned out to be 26390 M⁻¹; the “Kass (SV method II), BSA” value was 10620 M⁻¹; the “n, number of binding sites” value worked out at 0.926; the “Gibb's free energy change” value is -23.0 kJ/M. Further, in series [4], the “Kq (SV method I), BSA” value was 2.639e+12 M⁻¹ s⁻¹ and the “P, ratio” value is given as 0.464.
